Assay results taken from US20220135567A1, “TYK2 PSEUDOKINASE LIGANDS” (Ventyx Biosciences, Inc., priority 2019, published 2022).

Tested on: IFN-a/Jak1Tyk2
Assay: Co-stimulation assay in lysed whole blood: IFNa (JAK1/TYK2) stimulated STAT1 phosphorylation
Format: cell-based
Conditions: 20 min, lysed human whole blood, IFNa 100 ng/mL + GM-CSF 10 ng/mL, pSTAT1 by flow cytometry
Outline: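 Red-cell-lysed human whole blood, pretreated with compound for 1 h at 37°C, was stimulated 20 min at 37°C with IFNa (100 ng/mL final) plus GM-CSF (10 ng/mL final). Cells were then fixed/lysed, permeabilised in Perm Buffer III and stained overnight for pSTAT1 (PE) and pSTAT5. Read-out by flow cytometry.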

Compound | IC50 [nM]
[2H]C([2H])([2H])Nc1cc(Nc2cccc3c2OCCO3)nc2c(C(=O)NCC(C)(C)CO)cnn12 [Compound 84, 5-((2,3-dihydrobenzo[b][1,4]dioxin-5-yl)amino)-N-(3-hydroxy-2,2-dimethylpropyl)-7-((methyl-d3)amino)pyrazolo[1,5-a]pyrimidine-3-carboxamide] | < 100
CNc1cc(Nc2cnn(CCOC)c2)nc2c(C(=O)NC3CC3)cnn12 [Compound 47, N-cyclopropyl-5-((1-(2-methoxyethyl)-1H-pyrazol-4-yl)amino)-7-(methylamino)pyrazolo[1,5-a]pyrimidine-3-carboxamide] | > 300
CNc1cc(Nc2cc(F)cc(F)c2OC)nc2c(C(=O)NCC(C)(C)CO)cnn12 [Compound 23, 5-((3,5-difluoro-2-methoxyphenyl)amino)-N-(3-hydroxy-2,2-dimethylpropyl)-7-(methylamino)pyrazolo[1,5-a]pyrimidine-3-carboxamide] | < 100
CNc1cc(Nc2cccc(N3CCN(C)CC3)c2)nc2c(C(=O)NC3CC3)cnn12 [Compound 51, N-cyclopropyl-7-(methylamino)-5-((3-(4-methylpiperazin-1-yl)phenyl)amino)pyrazolo[1,5-a]pyrimidine-3-carboxamide] | < 100
CCOC(=O)c1nscc1Nc1cc(NC)n2ncc(C(=O)NCCOC)c2n1 [Compound 45, ethyl 4-((3-((2-methoxyethyl)carbamoyl)-7-(methylamino)pyrazolo[1,5-a]pyrimidin-5-yl)amino)isothiazole-3-carboxylate] | > 300

Results, then the compound that gave them:

IC50 [nM] | Compound
< 100 | CNc1cc(Nc2cccn(C)c2=O)nc2c(C(=O)NC3CCC3)cnn12 [Compound 113, N-cyclobutyl-5-((1-methyl-2-oxo-1,2-dihydropyridin-3-yl)amino)-7-(methylamino)pyrazolo[1,5-a]pyrimidine-3-carboxamide]
< 100 | CNc1cc(Nc2cccc3c2OCCO3)nc2c(C(=O)NC3CC(O)C3)cnn12 (centres unmarked) [Compound 102, 5-((2,3-dihydrobenzo[b][1,4]dioxin-5-yl)amino)-N-(3-hydroxycyclobutyl)-7-(methylamino)pyrazolo[1,5-a]pyrimidine-3-carboxamide]
> 3000 | CNc1cc(Nc2cccn(C)c2=O)nc2c(C(=O)NC3CC(OC)C3)cnn12 (centres unmarked) [Compound 88, N-(3-methoxycyclobutyl)-5-((1-methyl-2-oxo-1,2-dihydropyridin-3-yl)amino)-7-(methylamino)pyrazolo[1,5-a]pyrimidine-3-carboxamide]
